From US20100286098A1, “USE OF TETRAHYDROCANNABINOL AND/OR CANNABIDIOL FOR THE TREATMENT OF INFLAMMATORY BOWEL DISEASE” (GW Pharma Limited, priority 2007, published 2010)

Experiments:
Assay type in all cases: in vivo, rat
[1] = test system: TNBS (trinitrobenzenesulfonic acid) model of colitis; test: TNBS model of colitis, macroscopic damage score (MDS); settings: for MDS, mean: 72 h after TNBS, 0-13 scale
Method: (§1) In this example, the TNBS (trinitrobenzenesulfonic acid) model of colitis was used to characterize the effects of CBD alone, THC alone and a combination of CBD and THC (in two different ratios) on inflammation and in vitro motility and secretory parameters.
(§2) Colitis was evoked in male Wistar rats by intra-colonic administration of 6.7 mg TNBS in 0.25 ml 25% ethanol. The degree of inflammation was quantified using a macroscopic damage score (MDS, 0-13 scale) and myeloperoxidase (MPO) activity.
(§3) CBD was used at doses of 5, 10, 15 and 20 mg/kg. THC was used at doses of 5, 10 and 20 mg/kg. In addition THC at doses of 5 and 10 mg/kg was administered in combination with CBD at a dose of 10 mg/kg.
(§4) Doses were administered i.p., once daily starting 0.5 hour before TNBS administration and animals (n=6-11 per group) were sacrificed 72 hours after colitis induction.

[2] = test system: myeloperoxidase (MPO) activity; test: TNBS model of colitis, myeloperoxidase (MPO) activity; settings: for MPO, mean: 72 h after TNBS
Method: as §1, §2, §3, §4

[3] = test system: mucosa-submucosa preparations; test: Ussing chamber, secretory response to carbachol (ΔIsc), TNBS colitis rats; settings: THC alone, data not shown
Method: (§5) Using the Ussing chamber technique, secretory responses evoked by veratridine (a nerve stimulant, 1×10^−5M) were assessed and expressed as % response to carbachol (1×10−5M).
as §3, §4

[4] = test system: mucosa-submucosa preparations; test: Ussing chamber, secretory response evoked by veratridine (nerve stimulation), TNBS colitis rats
Method: as §5, §3, §4

SMILES: C=C(C)[C@@H]1CCC(C)=C[C@H]1c1c(O)cc(CCCCC)cc1O [CBD, cannabidiol]
- MDS, mean ([1]; CBD 5 mg/kg i.p. once daily, vehicle 5.46): 6.75
- MDS, mean ([1]; CBD 15 mg/kg i.p. once daily, vehicle 5.46): 5.60
- MDS, mean ([1]; CBD 20 mg/kg i.p. once daily, vehicle 5.46): 4.60
- MPO, mean ([2]; CBD 5 mg/kg i.p. once daily, vehicle 6.03): 5.38 ngHRP/mg protein
- MPO, mean ([2]; CBD 10 mg/kg i.p. once daily, vehicle 6.03): 4.65 ngHRP/mg protein
- MPO, mean ([2]; CBD 15 mg/kg i.p. once daily, vehicle 6.03): 4.00 ngHRP/mg protein
- MPO, mean ([2]; CBD 20 mg/kg i.p. once daily, vehicle 6.03): 2.68 ngHRP/mg protein
- effect on MPO across doses ([2]; CBD 5, 10, 15 and 20 mg/kg i.p.): reduced MPO in a dose dependent manner, but the effect was not significant

SMILES: CCCCCc1cc(O)c2c(c1)OC(C)(C)[C@@H]1CCC(C)=C[C@@H]21 [THC, tetrahydrocannabinol]
- responses to carbachol [3]: not significantly increased
- secretory response to nerve stimulation ([4]; THC 10 mg/kg i.p. alone, expressed as % response to carbachol, vehicle 24.4±8.2): 30.3±7.5
- secretory responses to nerve stimulation ([4]; THC alone, data not shown): did not affect
- MDS, mean ([1]; THC 5 mg/kg i.p. once daily, vehicle 6.00): 6.5
- MDS, mean ([1]; THC 20 mg/kg i.p. once daily, vehicle 6.00): 4.67
- dose-response relationship on MDS ([1]; THC 5, 10 and 20 mg/kg i.p.): bell-shaped pattern
- MPO, mean ([2]; THC 5 mg/kg i.p. once daily, vehicle 3.35): 4.29 ngHRP/mg protein
